From ChEMBL document CHEMBL1201862, “PubChem BioAssay data set” (2004)
Each block holds one compound with its values, some of them ahead of it. Active and inactive are the calls of the source.

Legend:
[1] = target: T1, Sentrin-specific protease 8 (Homo sapiens, UniProt Q96LD8); assay type: functional
T1 sequence (Q96LD8 whole entry): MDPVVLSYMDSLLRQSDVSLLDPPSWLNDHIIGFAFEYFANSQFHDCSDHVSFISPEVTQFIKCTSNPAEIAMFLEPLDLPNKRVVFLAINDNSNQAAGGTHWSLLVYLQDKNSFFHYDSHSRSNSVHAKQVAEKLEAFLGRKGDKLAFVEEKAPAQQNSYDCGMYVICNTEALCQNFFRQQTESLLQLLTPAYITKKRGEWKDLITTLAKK

[2] = target: Glycogen synthase kinase-3 beta (Homo sapiens, UniProt P49841); assay type: functional;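 further: value comes from a broad kinome profiling panel, with GSK3B as the panel member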
Focal adhesion kinase 1 = Focal adhesion kinase 1 (Homo sapiens, UniProt Q05397); assay type: functional;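 further: measured as one member of a kinome panel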
[3] = target: Casein kinase I isoform alpha (Homo sapiens, UniProt P48729); assay type: functional
[4] = target: Macrophage-stimulating protein receptor (Homo sapiens, UniProt Q04912); assay: Navigating the Kinome. Panel member name: MST1R; assay type: functional
[5] = target: Mitogen-activated protein kinase 14 (Homo sapiens, UniProt Q16539); assay type: functional;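 further: part of a kinome-wide panel, MAPK14 entry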
[6] = target: Vascular endothelial growth factor receptor 2 (Homo sapiens, UniProt P35968); assay type: functional
[7] = target: Leucine-rich repeat serine/threonine-protein kinase 2 (Homo sapiens, UniProt Q5S007); assay type: functional;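 further: value from a broad kinome-wide panel profiling study in which LRRK2 was one of the kinases tested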
[8] = target: Cyclin-dependent kinase 9 (Homo sapiens, UniProt P50750); assay type: functional;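 further: value from the CDK9 entry of a kinome-spanning kinase panel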
[9] = target: T2, Alkaline phosphatase, tissue-nonspecific isozyme (Homo sapiens, UniProt P05186); assay: activation of tissue-nonspecific alkaline phosphatase – biochemical, TNAP isozyme, mouse IAP uHTS hits, selectivity assay for mouse IAP activator project, dose response (AID 488880); assay type: functional
T2 sequence (P05186 whole entry): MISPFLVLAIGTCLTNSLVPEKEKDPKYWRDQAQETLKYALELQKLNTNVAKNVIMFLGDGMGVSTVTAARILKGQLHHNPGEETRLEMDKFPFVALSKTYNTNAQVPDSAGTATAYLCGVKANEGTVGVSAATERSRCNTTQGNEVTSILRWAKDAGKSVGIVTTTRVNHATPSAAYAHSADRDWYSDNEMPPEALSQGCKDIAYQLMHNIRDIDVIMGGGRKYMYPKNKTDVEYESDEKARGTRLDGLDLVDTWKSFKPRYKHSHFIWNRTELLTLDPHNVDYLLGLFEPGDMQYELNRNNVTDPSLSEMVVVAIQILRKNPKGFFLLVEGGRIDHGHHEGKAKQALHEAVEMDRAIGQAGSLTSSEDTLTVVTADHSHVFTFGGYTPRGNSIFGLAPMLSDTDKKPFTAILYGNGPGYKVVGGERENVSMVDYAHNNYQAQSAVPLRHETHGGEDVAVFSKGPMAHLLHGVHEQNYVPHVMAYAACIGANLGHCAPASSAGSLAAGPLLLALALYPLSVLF

[10] = target: T3, 1-phosphatidylinositol 4,5-bisphosphate phosphodiesterase gamma-1 (Homo sapiens, UniProt P19174); assay: Counterscreen for inhibitors of phospholipase C isozymes (PLC-B3): Fluorescence-based biochemical high throughput dose response assay to identify inhibitors of phospholipase C isozymes (PLC-gamma1).
T3 sequence (P19174 whole entry): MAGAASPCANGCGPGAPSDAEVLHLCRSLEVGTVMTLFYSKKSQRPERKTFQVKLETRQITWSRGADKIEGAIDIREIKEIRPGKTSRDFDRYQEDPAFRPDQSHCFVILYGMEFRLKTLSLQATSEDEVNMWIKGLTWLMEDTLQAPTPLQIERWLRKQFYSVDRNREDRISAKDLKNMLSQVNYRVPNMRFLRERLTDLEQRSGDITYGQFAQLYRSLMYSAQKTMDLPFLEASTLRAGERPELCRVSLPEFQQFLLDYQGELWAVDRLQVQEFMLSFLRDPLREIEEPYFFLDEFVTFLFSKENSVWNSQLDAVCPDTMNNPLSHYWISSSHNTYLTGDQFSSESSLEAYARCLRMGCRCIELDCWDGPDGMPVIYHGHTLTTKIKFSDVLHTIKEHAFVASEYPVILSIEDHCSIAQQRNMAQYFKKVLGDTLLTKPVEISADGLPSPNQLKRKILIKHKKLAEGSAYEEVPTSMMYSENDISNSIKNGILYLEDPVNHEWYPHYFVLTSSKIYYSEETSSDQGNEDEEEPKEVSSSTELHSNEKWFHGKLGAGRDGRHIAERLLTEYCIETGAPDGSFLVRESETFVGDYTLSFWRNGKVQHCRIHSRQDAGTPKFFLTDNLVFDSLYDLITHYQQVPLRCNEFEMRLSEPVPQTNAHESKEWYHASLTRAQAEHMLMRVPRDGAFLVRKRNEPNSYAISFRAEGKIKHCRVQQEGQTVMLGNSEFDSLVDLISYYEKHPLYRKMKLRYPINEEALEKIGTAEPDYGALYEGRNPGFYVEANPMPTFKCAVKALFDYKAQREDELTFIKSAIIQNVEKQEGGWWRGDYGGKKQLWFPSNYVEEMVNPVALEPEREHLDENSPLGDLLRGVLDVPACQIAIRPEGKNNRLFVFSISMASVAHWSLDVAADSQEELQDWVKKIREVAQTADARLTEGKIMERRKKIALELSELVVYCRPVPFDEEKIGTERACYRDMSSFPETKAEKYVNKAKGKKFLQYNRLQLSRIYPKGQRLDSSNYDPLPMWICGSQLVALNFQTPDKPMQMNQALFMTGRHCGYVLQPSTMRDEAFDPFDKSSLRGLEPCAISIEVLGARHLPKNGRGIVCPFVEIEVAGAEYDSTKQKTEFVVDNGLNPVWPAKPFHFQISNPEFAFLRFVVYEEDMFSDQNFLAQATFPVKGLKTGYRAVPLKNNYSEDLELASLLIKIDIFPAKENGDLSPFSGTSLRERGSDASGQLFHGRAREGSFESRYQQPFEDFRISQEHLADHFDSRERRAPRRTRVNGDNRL

Focal adhesion kinase 1, sequence (Q05397 whole entry, canonical isoform): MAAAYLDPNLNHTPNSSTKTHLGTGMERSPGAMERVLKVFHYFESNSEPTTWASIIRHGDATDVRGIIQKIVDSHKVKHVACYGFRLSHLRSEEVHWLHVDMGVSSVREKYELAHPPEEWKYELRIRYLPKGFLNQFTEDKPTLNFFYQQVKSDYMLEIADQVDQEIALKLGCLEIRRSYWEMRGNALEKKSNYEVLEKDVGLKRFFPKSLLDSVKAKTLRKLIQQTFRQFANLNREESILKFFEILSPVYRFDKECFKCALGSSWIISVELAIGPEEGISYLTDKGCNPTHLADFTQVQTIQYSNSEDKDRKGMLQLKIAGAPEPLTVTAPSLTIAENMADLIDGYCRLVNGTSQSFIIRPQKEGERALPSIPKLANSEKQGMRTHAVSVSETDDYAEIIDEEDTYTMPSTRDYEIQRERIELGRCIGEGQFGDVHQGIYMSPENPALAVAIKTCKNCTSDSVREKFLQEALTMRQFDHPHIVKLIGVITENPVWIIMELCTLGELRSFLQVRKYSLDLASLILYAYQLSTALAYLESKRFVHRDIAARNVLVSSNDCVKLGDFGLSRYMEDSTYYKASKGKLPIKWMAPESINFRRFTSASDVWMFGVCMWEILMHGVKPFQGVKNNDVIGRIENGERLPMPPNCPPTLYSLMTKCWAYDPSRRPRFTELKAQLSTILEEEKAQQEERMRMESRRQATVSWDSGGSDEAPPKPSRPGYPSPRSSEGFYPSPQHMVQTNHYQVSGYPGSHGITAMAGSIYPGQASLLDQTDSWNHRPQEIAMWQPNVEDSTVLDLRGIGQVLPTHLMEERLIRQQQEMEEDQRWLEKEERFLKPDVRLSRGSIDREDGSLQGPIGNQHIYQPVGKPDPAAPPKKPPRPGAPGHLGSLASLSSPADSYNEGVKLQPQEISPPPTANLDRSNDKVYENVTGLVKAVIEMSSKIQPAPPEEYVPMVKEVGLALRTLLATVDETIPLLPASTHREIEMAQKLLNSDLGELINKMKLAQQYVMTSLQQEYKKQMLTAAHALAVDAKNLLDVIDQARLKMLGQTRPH
Macrophage-stimulating protein receptor, sequence (Q04912 25-304 limits assumed): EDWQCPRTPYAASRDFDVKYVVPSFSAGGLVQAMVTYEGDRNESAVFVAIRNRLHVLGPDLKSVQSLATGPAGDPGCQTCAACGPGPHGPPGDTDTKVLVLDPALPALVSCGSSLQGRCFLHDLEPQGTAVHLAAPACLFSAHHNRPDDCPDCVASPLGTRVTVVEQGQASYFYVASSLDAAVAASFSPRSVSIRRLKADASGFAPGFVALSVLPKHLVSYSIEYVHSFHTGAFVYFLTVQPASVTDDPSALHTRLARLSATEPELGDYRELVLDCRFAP
Macrophage-stimulating protein receptor, sequence (Q04912 310-1400 limits assumed): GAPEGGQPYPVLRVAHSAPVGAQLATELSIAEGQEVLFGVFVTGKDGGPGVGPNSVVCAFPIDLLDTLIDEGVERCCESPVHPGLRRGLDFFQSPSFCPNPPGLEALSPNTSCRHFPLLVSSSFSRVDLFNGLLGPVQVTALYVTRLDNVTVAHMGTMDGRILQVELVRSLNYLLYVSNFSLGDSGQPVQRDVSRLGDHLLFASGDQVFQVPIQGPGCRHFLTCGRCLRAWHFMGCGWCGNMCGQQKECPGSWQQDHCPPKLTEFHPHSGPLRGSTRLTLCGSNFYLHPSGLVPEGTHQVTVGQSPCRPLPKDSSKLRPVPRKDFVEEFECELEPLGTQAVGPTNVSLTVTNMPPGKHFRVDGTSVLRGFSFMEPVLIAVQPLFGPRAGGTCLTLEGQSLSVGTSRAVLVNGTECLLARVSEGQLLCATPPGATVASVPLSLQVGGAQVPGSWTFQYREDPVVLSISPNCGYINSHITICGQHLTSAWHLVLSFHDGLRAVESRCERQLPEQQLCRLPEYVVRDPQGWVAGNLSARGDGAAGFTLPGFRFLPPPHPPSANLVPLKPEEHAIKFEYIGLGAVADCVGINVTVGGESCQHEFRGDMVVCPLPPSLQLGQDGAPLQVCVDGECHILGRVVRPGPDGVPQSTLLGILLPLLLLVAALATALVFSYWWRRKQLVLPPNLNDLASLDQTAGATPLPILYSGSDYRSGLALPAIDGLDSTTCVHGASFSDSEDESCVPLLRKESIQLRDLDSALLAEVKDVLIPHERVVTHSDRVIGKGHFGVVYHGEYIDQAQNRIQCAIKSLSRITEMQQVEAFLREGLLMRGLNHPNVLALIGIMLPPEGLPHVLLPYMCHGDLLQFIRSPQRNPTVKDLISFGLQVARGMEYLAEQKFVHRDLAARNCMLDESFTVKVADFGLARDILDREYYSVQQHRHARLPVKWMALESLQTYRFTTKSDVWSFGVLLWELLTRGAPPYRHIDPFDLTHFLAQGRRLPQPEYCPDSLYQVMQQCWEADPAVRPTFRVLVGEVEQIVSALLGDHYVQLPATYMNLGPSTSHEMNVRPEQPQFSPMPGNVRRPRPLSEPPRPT
Mitogen-activated protein kinase 14, sequence (Q16539 whole entry): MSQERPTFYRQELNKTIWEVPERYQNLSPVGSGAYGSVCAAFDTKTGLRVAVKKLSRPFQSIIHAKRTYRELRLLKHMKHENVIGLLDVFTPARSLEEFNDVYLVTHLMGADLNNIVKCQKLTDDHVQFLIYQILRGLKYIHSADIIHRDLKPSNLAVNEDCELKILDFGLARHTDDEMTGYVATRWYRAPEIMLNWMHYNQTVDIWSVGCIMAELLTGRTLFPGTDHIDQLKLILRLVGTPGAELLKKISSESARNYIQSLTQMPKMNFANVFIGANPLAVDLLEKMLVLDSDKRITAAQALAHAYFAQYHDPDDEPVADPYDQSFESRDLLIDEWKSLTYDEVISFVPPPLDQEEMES
Cyclin-dependent kinase 9, sequence (P50750 whole entry): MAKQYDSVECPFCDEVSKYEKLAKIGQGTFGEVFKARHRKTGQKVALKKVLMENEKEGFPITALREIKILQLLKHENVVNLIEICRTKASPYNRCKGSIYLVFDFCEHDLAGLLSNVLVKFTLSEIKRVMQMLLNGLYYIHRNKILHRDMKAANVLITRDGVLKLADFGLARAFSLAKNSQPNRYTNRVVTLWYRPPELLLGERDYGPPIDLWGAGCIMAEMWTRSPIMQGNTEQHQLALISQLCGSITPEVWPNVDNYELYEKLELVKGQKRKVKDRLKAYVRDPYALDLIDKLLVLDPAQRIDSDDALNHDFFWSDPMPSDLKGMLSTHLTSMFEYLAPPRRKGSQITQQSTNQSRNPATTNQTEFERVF
Casein kinase I isoform alpha, sequence (P48729 whole entry, canonical isoform): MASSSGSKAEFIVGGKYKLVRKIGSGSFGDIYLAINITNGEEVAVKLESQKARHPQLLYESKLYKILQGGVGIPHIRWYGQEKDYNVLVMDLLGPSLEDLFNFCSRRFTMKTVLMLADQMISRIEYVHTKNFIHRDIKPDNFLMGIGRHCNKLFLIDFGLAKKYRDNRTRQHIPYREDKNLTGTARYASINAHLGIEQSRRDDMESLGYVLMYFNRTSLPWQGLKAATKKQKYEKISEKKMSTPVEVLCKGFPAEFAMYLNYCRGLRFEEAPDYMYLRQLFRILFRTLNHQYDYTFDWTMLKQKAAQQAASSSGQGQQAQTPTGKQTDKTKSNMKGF
Glycogen synthase kinase-3 beta, sequence (P49841 whole entry): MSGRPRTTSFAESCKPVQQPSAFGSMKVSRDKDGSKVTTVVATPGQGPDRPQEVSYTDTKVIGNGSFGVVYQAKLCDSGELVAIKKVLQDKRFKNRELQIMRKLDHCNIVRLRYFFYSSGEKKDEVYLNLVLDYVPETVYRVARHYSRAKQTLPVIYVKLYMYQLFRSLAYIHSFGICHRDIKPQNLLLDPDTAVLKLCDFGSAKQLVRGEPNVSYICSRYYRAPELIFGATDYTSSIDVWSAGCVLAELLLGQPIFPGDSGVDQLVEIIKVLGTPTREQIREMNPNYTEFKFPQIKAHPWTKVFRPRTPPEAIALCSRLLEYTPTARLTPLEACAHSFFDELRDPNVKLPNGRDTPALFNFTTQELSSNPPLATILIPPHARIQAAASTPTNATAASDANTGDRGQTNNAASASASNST

Structure (SMILES): CC1(C)C=C2C(=NN(c3ccccc3)C(N)=C2C#N)CO1
IC50 [1]: 0.0693 µM (active)

Ki [2]: > 3.98 µM (inactive)
Ki (Focal adhesion kinase 1): > 6.31 µM (inactive)
Ki [3]: > 3.98 µM (inactive)
Ki [4]: > 3.98 µM (inactive)
Ki [5]: > 3.98 µM (inactive)
Ki [6]: 1.26 µM (active)
Ki [7]: > 2.51 µM (inactive)
Ki [8]: > 1.58 µM (inactive)
Structure (SMILES): Cc1ccc(-c2cc3nc(Br)cnc3[nH]2)cc1

Structure (SMILES): O=C1C=C(O)c2c(O)cc(O)c(O)c2C1=O
EC50 [9]: > 100 µM (inactive)
IC50 [10]: > 40.8 µM (inactive)
